Source: US20240368139A1, “NOVEL MODULATORS OF EHMT1 AND EHMT2 AND THERAPEUTIC USE THEREOF” (Tango Therapeutics, Inc., priority 2021, published 2024)

Experiments:
[1] = test system: H3K9me2 in HCT116 cells; experiment: HCT116 H3K9me2 in-cell western assay; type: cell-based; conditions: Homo sapiens, HCT-116, 72 h, HCT116 cells, 72 hours incubation; read-out: H3K9me2 ICW IC50
Procedure, shortened: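 H3K9me2 signal (800 nm) was normalized to DRAQ5 DNA stain (700 nm) in an in-cell western. Cells were fixed with paraformaldehyde and probed overnight at 4° C with primary antibody.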

[2] = target: T1, human EHMT1 982-1266 (Homo sapiens, UniProt Q9H9B1); experiment: EHMT1 enzyme assay on histone peptide substrate (3H-SAM SPA); conditions: EHMT1 IC50, recombinant human EHMT1 982-1266, histone peptide substrate
T1 sequence (Q9H9B1 982-1266): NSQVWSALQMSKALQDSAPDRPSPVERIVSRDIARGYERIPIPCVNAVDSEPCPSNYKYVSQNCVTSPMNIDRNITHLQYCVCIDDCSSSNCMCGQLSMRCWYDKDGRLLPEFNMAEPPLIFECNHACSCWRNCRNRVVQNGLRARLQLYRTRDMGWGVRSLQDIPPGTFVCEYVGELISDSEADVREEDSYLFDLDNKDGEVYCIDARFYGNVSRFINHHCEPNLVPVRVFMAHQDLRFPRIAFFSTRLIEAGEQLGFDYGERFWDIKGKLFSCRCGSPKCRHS

[3] = target: T2, human EHMT2 913-1193 (Homo sapiens, UniProt Q96KQ7); experiment: EHMT2 enzyme assay on histone peptide substrate (3H-SAM SPA); conditions: EHMT2 IC50, recombinant human EHMT2 913-1193, histone peptide substrate
T2 sequence (Q96KQ7 913-1193): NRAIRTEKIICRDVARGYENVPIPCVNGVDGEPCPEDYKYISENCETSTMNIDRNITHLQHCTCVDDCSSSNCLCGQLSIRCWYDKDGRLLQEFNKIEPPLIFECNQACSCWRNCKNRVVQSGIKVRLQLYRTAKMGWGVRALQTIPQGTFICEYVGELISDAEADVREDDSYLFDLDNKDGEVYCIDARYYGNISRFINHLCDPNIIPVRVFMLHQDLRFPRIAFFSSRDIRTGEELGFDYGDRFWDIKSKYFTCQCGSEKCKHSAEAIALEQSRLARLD

| Compound | IC50 [1] | IC50 [2] | IC50 [3] |
| --- | --- | --- | --- |
| [2H]Cc1cc(NC)nc(Nc2cc3c(c(C4=CCN(C)CCC4)c2)OCCO3)n1 [Compound 266] | < 100 nM | < 100 nM | 100 to 500 nM |
| CNc1nc(Nc2cc3c(c(C4=CCN(C)CCC4)c2)OCC3)nc(C)c1F [Compound 267] | 100 to 500 nM | 100 to 500 nM | 500 to 2000 nM |
| [2H]C([2H])([2H])Nc1cc(C)nc(Nc2cc3c(c(C4=CCN(C)CCC4)c2)OCCC3)n1 [Compound 268] | 100 to 500 nM | < 100 nM | 100 to 500 nM |
| [2H]Cc1cc(NC)nc(Nc2cc3c(c(C4=CCNCCC4)c2)OCO3)n1 [Compound 269] | < 100 nM | < 100 nM | < 100 nM |
| [2H]Cc1cc(NC)nc(Nc2cc3c(c(C4=CCNCCC4)c2)OCCO3)n1 [Compound 270] | < 100 nM | < 100 nM | < 100 nM |
| [2H]C([2H])([2H])Nc1nc(Nc2cc3c(c(C4=CCN(C)CCC4)c2)OCC3)nc(C)c1F [Compound 271] | 100 to 500 nM | 100 to 500 nM | 500 to 2000 nM |
| [2H]C([2H])([2H])CNc1cc(C)nc(Nc2cc3c(c(C4=CCN(C)CCC4)c2)OCCO3)n1 [Compound 272] | 100 to 500 nM | 100 to 500 nM | 500 to 2000 nM |
| [2H]C([2H])([2H])Nc1cc(C)nc(Nc2cc3c(c(C4=CCN(C)CCC4)c2)OCO3)n1 [Compound 273] | < 100 nM | < 100 nM | 100 to 500 nM |
| [2H]C([2H])([2H])N1CC=C(c2cc(Nc3nc(C)cc(NC)n3)cc3c2OCC3)CCC1 [Compound 274] | < 100 nM | < 100 nM | < 100 nM |
| [2H]C([2H])([2H])Nc1nc(Nc2cc3c(c(C4=CCNCCC4)c2)OCO3)nc(C)c1F [Compound 275] | 100 to 500 nM | 100 to 500 nM | 500 to 2000 nM |
| [2H]C([2H])([2H])Nc1nc(Nc2cc3c(c(C4=CCNCCC4)c2)OCC3)nc(C)c1F [Compound 276] | 100 to 500 nM | 100 to 500 nM | 100 to 500 nM |
| CNc1nc(Nc2cc3c(c(C4=CCNCCC4)c2)OCC3)nc(C)c1F [Compound 277] | 100 to 500 nM | 100 to 500 nM | 100 to 500 nM |
| CNc1cc(C)nc(Nc2cc3c(c(C4=CCN(C)CCC4)c2)OCC3)c1 [Compound 278] | 100 to 500 nM | < 100 nM | 100 to 500 nM |
| CNc1nc(Nc2cc3c(c(C4=CCNCCC4)c2)OCO3)nc(C)c1F [Compound 279] | 100 to 500 nM | 100 to 500 nM | 500 to 2000 nM |
| CNc1cc(C)nc(Nc2cc3c(c(C4=CCN(C)CCC4)c2F)OCC3)n1 [Compound 280, N2-[6-fluoro-7-(1-methyl-2,3,4,7-tetrahydroazepin-5-yl)-2,3-dihydrobenzofuran-5-yl]-N4,6-dimethyl-pyrimidine-2,4-diamine] | < 100 nM | < 100 nM | < 100 nM |
| [2H]C([2H])([2H])Nc1cc(C)nc(Nc2cc3c(c(C4=CCNCCC4)c2)OCO3)n1 [Compound 281] | < 100 nM | < 100 nM | < 100 nM |
| [2H]C([2H])([2H])Nc1cc(C)nc(Nc2cc3c(c(C4=CCN(C)CCC4)c2)OCCO3)n1 [Compound 282] | 100 to 500 nM | < 100 nM | 500 to 2000 nM |
| [2H]C([2H])([2H])Nc1cc(C)nc(Nc2cc3c(c(C4=CCNCCC4)c2)OCCO3)n1 [Compound 283] | < 100 nM | < 100 nM | < 100 nM |
| CNc1nc(Nc2cc3c(c(C4=CCNCCC4)c2)OCC3)nc(C)c1Cl [Compound 284] | 100 to 500 nM | 100 to 500 nM | 500 to 2000 nM |
| [2H]C([2H])([2H])CNc1cc(C)nc(Nc2cc3c(c(C4=CCNCCC4)c2)OCCO3)n1 [Compound 285] | 100 to 500 nM | 100 to 500 nM | 100 to 500 nM |
| CNc1nc(Nc2cc3c(c(C4=CCN(C)CCC4)c2)OCC3)nc(C)c1C [Compound 286] | 100 to 500 nM | < 100 nM | 100 to 500 nM |
| CNc1nc(Nc2cc3c(c(C4=CCNCCC4)c2)OCC3)nc(C)c1C [Compound 287] | < 100 nM | < 100 nM | < 100 nM |
| CNc1cc(C)nc(Nc2cc3c(c(C4=CCNCCC4)c2)OCC3)c1 [Compound 288] | 100 to 500 nM | < 100 nM | < 100 nM |
| Cc1cc(NCC2CCCO2)nc(Nc2cc3c(c(C4=CCN(C)CCC4)c2)OCC3)n1 (stereo not drawn) [Compound 292] | 100 to 500 nM | 100 to 500 nM | 100 to 500 nM |
| COCCCNc1cc(C)nc(Nc2cc3c(c(C4=CCNCCC4)c2)OCC3)c1 [Compound 293] | 500 to 2000 nM | 100 to 500 nM | 100 to 500 nM |

| Compound | IC50 [1] | IC50 [2] | IC50 [3] |
| --- | --- | --- | --- |
| Cc1cc(NCC2CCCO2)nc(Nc2cc3c(c(C4=CCNCCC4)c2)OCC3)n1 (stereo not drawn) [Compound 294] | 100 to 500 nM | < 100 nM | 100 to 500 nM |
| COCCCNc1cc(C)nc(Nc2cc3c(c(C4=CCN(C)CCC4)c2)OCC3)c1 [Compound 295] | 500 to 2000 nM | 100 to 500 nM | 500 to 2000 nM |
| [2H]C([2H])([2H])CNc1cc(C)nc(Nc2cc3c(c(C4=CCN(C)CCC4)c2)OCC3)n1 [Compound 296] | 100 to 500 nM | < 100 nM | 100 to 500 nM |
| COCCNc1cc(C)nc(Nc2cc3c(c(C4=CCN(C)CCC4)c2)OCC3)c1 [Compound 297] | 500 to 2000 nM | 100 to 500 nM | 500 to 2000 nM |
| COCCCNc1cc(C)nc(Nc2cc3c(c(C4=CCN(C)CCC4)c2)OCC3)n1 [Compound 298] | 100 to 500 nM | < 100 nM | 100 to 500 nM |
| Cc1cc(NCC2CCOCC2)nc(Nc2cc3c(c(C4=CCN(C)CCC4)c2)OCC3)n1 [Compound 299] | 100 to 500 nM | < 100 nM | 100 to 500 nM |
| [2H]C([2H])([2H])CNc1cc(C)nc(Nc2cc3c(c(C4=CCNCCC4)c2)OCC3)n1 [Compound 300] | 100 to 500 nM | < 100 nM | < 100 nM |
| [2H]C([2H])([2H])Nc1cc(C)nc(Nc2cc3c(c(C4=CCN(C)CCC4)c2)OCC3)n1 [Compound 301] | 100 to 500 nM | < 100 nM | < 100 nM |
| [2H]Cc1cc(NC)nc(Nc2cc3c(c(C4=CCNCCC4)c2)OCC3)n1 [Compound 302] | < 100 nM | < 100 nM | < 100 nM |
| [2H]Cc1cc(NC)nc(Nc2cc3c(c(C4=CCN(C)CCC4)c2)OCC3)n1 [Compound 303] | < 100 nM | < 100 nM | < 100 nM |
| CNc1cc(Nc2cc3c(c(C4=CCNCCC4)c2)OCC3)nc(C)c1F [Compound 304] | 100 to 500 nM | < 100 nM | < 100 nM |
| COCCNc1cc(C)nc(Nc2cc3c(c(C4=CCNCCC4)c2)OCC3)c1 [Compound 305] | 500 to 2000 nM | 100 to 500 nM | 100 to 500 nM |
| [2H]C([2H])([2H])Nc1cc(C)nc(Nc2cc3c(c(C4=CCNCCC4)c2)OCC3)n1 [Compound 306] | < 100 nM | < 100 nM | < 100 nM |
| CNc1cc(C)nc(Nc2cc3c(c(C4=CCCNCC4C)c2)OCC3)n1 (stereo not drawn) [Compound 307] | 500 to 2000 nM | 100 to 500 nM | 500 to 2000 nM |
| Cc1cc(NCC2CCOCC2)nc(Nc2cc3c(c(C4=CCNCCC4)c2)OCC3)n1 [Compound 308] | 100 to 500 nM | < 100 nM | < 100 nM |
| Cc1cc(NCC(F)(F)F)cc(Nc2cc3c(c(C4=CCNCCC4)c2)OCC3)n1 [Compound 309] | 500 to 2000 nM | 100 to 500 nM | 500 to 2000 nM |
| COCCCNc1cc(C)nc(Nc2cc3c(c(C4=CCNCCC4)c2)OCC3)n1 [Compound 310] | 100 to 500 nM | < 100 nM | < 100 nM |
| CNc1cc(C)nc(Nc2cc3c(c(C4=CCNCCC4)c2)COC3)n1 [Compound 311] | 100 to 500 nM | 100 to 500 nM | 500 to 2000 nM |
| Cc1cc(NC2COC2)cc(Nc2cc3c(c(C4=CCN(C)CCC4)c2)OCC3)n1 [Compound 312] | 500 to 2000 nM | 100 to 500 nM | 500 to 2000 nM |
| Cc1cc(NC2COC2)cc(Nc2cc3c(c(C4=CCNCCC4)c2)OCC3)n1 [Compound 313] | 500 to 2000 nM | 100 to 500 nM | 100 to 500 nM |
| CNc1cc(C2CC2)nc(Nc2cc3c(c(C4=CCN(C)CCC4)c2)OCC3)n1 [Compound 314] | 100 to 500 nM | 100 to 500 nM | 500 to 2000 nM |
| CCNc1cc(C)nc(Nc2cc3c(c(C4=CCNCCC4)c2)OCC3)n1 [Compound 315] | 100 to 500 nM | 100 to 500 nM | 100 to 500 nM |
| CCc1cc(NC)nc(Nc2cc3c(c(C4=CCN(C)CCC4)c2)OCC3)n1 [Compound 316] | 100 to 500 nM | < 100 nM | 100 to 500 nM |
| CNc1cc(C2CC2)nc(Nc2cc3c(c(C4=CCNCCC4)c2)OCC3)n1 [Compound 317] | < 100 nM | < 100 nM | 100 to 500 nM |
